From ChEMBL document CHEMBL1201862, “PubChem BioAssay data set” (2004)
Calls of active or inactive are those of the source.

How the values were obtained:
[1] = microbe, parasite or virus in culture; assay type: functional; conditions: Mycobacterium tuberculosis
Troponin, cardiac muscle = Troponin, cardiac muscle (Homo sapiens, UniProt P19429+P45379+P63316); assay: Fluorescence-based biochemical high throughput dose response assay for activators of the calcium sensitivity of cardiac Regulated Thin Filaments (RTF). [Related pubchem assays (depositor defined):AID493008, AID493018, AID504382, AID504383]; assay type: protein-complex assay
[2] = HEp-2 cell cytotoxicity, dose response, cytotoxicity control for RSV inhibitor project, HTS (AID 2410); assay type: functional; conditions: human respiratory syncytial virus
[3] = molecular target: T1, Voltage-gated N-type calcium channel alpha-1B subunit/Amyloid beta A4 precursor protein-binding family A member 1 (Homo sapiens, UniProt Q00975+Q02410); assay type: protein assay
Large T antigen = Large T antigen (Simian virus 40, UniProt P03070); assay type: functional, Betapolyomavirus macacae;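 also: Confirmatory-stage PubChem screen for compounds that inhibit SV40 T antigen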
[4] = molecular target: T1, Voltage-gated N-type calcium channel alpha-1B subunit/Amyloid beta A4 precursor protein-binding family A member 1; assay type: protein assay; remark: listed apart in the source
[5] = molecular target: Neurotensin receptor type 1 (Homo sapiens, UniProt P30989); assay type: functional;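 also: Image-based confirmatory dose-response assay measuring agonist activity at NTR1; NTR1-expressing U2OS osteosarcoma cells imaged for beta-arrestin GFP spot formation; agonist potency where compounds increase beta-arrestin recruitment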
[6] = molecular target: DNA damage-inducible transcript 3 protein (Mus musculus, UniProt P35639); assay type: functional, Cricetulus griseus
INS1 = assay: beta cell apoptosis inhibitors, cytokine rescue, dose response, luminescence, retest (AID 449756); assay type: functional, cell-based; conditions: Rattus norvegicus;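 also: cell death triggered by IL-1 beta plus TNF-alpha plus IFN-gamma mixture; protective hits raise ATP signal compared with cytokine alone wells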
Genome polyprotein = Genome polyprotein (dengue virus type 2, UniProt P29990); assay: Dengue-2 NS5 methyltransferase inhibitors, primary screen, biochemical, confirmation dose response (AID 588689); assay type: functional
[7] = Shn3 3'UTR reporter inhibitors, dose response, cell-based, Clone20 osteoblasts, firefly luciferase, cherry-picked (AID 624132); assay type: functional;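 also: firefly luciferase luminescence from reporter carrying the Shn3 3'UTR in osteoblasts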
[8] = control 3'UTR Renilla luciferase suppression, dose response, counter-screen for Shn3 inhibitor project, cell-based, Clone20-Shn3RL, cherry-picked (AID 624133); assay type: functional
[9] = HeLa cell cytotoxicity, dose response, cytotoxicity control for MgcRacGAP inhibitor project (AID 624300); assay type: functional
[10] = molecular target: T2, Rac GTPase-activating protein 1 (Homo sapiens, UniProt Q9H0H5); assay: MgcRacGAP GTPase-activating activity inhibitors, confirmation, biochemical, ADP Hunter fluorescence, primary and confirmatory (AID 624330); assay type: functional
T2 sequence (Q9H0H5 whole entry): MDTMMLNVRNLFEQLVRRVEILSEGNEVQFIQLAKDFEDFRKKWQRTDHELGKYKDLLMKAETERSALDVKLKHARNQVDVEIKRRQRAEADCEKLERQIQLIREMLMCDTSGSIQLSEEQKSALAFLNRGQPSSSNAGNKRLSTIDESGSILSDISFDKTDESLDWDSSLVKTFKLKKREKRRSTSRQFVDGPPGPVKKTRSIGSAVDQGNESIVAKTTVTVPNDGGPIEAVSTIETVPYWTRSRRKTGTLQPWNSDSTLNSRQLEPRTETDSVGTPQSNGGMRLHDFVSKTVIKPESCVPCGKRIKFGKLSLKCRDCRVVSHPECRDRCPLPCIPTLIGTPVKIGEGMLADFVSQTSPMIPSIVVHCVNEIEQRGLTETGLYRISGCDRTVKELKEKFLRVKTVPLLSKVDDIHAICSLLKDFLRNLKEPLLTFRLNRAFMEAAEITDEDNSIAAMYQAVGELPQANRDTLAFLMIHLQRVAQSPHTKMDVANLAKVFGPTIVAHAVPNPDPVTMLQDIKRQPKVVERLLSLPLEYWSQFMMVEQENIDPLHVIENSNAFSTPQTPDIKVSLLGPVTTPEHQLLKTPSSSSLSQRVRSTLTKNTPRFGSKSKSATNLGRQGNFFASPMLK

[11] = molecular target: Tyrosine-protein phosphatase non-receptor type 7 (Homo sapiens, UniProt P35236); assay type: functional
[12] = molecular target: T3, Tyrosine-protein phosphatase non-receptor type 22 (Homo sapiens, UniProt Q9Y2R2); assay type: functional
[13] = molecular target: T3, Tyrosine-protein phosphatase non-receptor type 22; assay type: functional; remark: listed apart in the source
[14] = cytotoxicity in HEK-293T cells, dose response, cytotoxicity control for TCR NF-kB inhibitor project, luminescence, T-cell screen hits (AID 489026); assay type: functional, cell-based;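 also: cells exposed to compound about 14 hours before the viability readout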
Paired box protein Pax-8 = Paired box protein Pax-8 (Homo sapiens, UniProt Q06710); assay: inhibitors of PAX8-driven TPO luciferase reporter, dose response, RMG-I cells, cherry-pick (AID 687027); assay type: functional, cell-based;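 also: luciferase reporter driven by Pax8 target thyroperoxidase promoter measured by SteadyGlo luminescence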
[15] = Vero E6 cell cytotoxicity, dose response, cytotoxicity control for non-replicating M. tuberculosis project, secondary assay (AID 492998); assay type: functional, VeroE6; conditions: Vero C1008
[16] = growth suppression of PTEN-null colon cells, dose response, cell-based, HCT116 PTEN knockout (AID 1047); assay type: functional;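 also: HCT116 colon tumor cells with PTEN knocked out; cells exposed to compound for 60 hours before readout; potency for loss of cell viability measured by luminescence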
[17] = growth suppression of beta-catenin-knockout colon cells, dose response, cell-based, HCT116, human colon tumor (AID 1045); assay type: functional;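 also: HCT116 colon tumor cells with beta catenin knocked out; cells exposed to compound for 60 hours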
[18] = molecular target: T4, Heat shock factor protein 1 (Mus musculus, UniProt P38532); assay: HSF1 potentiators in luciferase reporter cells, confirmation, cell-based, NIH3T3, luminescence, dose retest (AID 435004); assay type: functional;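 also: stress induced by proteasome inhibitor MG132 added 30 min after compound; luciferase reporter driven by HSF1 response element in NIH3T3 cells; actives raise luminescence as potentiators of the MG132 stress response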
T4 sequence (P38532 whole entry): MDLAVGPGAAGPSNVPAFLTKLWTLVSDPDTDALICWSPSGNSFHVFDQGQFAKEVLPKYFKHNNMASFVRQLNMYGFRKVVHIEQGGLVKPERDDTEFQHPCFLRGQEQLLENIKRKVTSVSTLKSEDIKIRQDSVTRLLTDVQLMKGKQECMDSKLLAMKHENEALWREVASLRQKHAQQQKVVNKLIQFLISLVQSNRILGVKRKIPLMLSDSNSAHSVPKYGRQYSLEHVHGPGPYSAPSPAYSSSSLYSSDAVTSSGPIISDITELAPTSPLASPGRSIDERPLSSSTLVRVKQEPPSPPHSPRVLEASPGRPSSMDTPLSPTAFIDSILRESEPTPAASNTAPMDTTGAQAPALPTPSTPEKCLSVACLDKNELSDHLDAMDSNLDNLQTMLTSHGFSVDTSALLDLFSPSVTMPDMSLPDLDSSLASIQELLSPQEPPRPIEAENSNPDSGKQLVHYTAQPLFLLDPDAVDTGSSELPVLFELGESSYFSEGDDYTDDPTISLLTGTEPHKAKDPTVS

[19] = Intein inhibitors as potential Tuberculosis drugs, a cytotoxicity screen. [Related pubchem assays (depositor defined):AID2221, AID2223, AID434968, AID435010, AID449749, AID449750, AID489010]; assay type: functional
[20] = molecular target: T5, Replicative DNA helicase DnaB (Mycobacterium tuberculosis, UniProt P9WMR3); assay: DnaB intein splicing inhibitors, dose response, biochemical, cell-free fluorescence (AID 449749); assay type: functional
T5 sequence (P9WMR3 whole entry): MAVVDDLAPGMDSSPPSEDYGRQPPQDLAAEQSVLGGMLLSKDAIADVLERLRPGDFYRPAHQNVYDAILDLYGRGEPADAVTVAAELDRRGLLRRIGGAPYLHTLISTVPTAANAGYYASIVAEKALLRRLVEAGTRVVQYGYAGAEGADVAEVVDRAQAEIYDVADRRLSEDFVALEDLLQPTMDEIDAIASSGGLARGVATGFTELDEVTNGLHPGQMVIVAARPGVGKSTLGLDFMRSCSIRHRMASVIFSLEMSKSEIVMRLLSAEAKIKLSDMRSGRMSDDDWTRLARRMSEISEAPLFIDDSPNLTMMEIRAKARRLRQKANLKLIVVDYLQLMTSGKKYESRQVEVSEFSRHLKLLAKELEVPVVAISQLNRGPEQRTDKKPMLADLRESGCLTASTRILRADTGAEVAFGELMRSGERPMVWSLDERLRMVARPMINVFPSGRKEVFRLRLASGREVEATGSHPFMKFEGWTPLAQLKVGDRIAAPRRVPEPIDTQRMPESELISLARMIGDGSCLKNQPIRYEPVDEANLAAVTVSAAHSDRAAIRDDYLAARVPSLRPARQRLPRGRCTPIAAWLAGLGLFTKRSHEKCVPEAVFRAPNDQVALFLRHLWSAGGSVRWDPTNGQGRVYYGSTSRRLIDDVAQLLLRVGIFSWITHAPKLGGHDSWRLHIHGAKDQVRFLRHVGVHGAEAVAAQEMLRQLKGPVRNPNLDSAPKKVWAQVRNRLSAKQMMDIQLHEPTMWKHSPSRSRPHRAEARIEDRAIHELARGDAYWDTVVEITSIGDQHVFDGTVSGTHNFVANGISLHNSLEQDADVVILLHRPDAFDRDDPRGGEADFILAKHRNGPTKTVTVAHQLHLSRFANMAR

Protein RecA = molecular target: T6, Protein RecA (Mycobacterium tuberculosis, UniProt P9WHJ3); assay: Fluorescence Cell-Free Homogeneous Dose Retest to Identify Inhibitors of RecA-Intein Splicing Activity. [Related pubchem assays (depositor defined):AID2097, AID2223, AID489010, AID492950]; assay type: functional
T6 sequence (P9WHJ3 whole entry): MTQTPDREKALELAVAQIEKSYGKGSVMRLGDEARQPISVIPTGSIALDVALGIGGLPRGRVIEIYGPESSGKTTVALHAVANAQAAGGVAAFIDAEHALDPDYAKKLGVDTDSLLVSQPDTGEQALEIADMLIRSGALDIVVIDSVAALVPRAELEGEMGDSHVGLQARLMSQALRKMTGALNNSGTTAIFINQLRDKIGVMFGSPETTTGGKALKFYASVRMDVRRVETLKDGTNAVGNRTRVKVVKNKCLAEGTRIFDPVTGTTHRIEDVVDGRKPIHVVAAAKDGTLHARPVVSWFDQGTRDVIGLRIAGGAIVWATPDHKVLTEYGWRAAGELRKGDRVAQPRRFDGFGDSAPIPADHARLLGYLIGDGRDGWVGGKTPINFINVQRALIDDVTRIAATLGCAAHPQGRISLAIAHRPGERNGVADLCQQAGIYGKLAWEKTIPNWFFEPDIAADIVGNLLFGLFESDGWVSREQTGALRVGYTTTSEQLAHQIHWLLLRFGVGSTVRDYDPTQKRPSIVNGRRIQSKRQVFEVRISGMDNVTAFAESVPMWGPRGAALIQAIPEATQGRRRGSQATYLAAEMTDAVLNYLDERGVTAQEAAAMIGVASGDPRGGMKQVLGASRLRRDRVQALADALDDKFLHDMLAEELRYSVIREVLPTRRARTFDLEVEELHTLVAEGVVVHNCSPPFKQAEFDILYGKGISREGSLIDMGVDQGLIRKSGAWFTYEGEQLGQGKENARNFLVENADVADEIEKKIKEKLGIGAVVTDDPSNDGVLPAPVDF

[21] = molecular target: T7, Kappa-type opioid receptor (Homo sapiens, UniProt P41145); assay: SAR analysis of small molecule antagonists of the kappa opioid receptor via a luminescent beta-arrestin assay - Set 4. [Related pubchem assays (depositor defined):AID1777, AID1778, AID1785, AID1786, AID1966, AID2133, AID2136, AID2285]; assay type: functional
[22] = molecular target: T7, Kappa-type opioid receptor; assay: SAR analysis of small molecule antagonists of the kappa opioid receptor via a luminescent beta-arrestin assay - Set 5. [Related pubchem assays (depositor defined):AID1778, AID1785]; assay type: functional
Integrin alpha-L = Integrin alpha-L (Mus musculus, UniProt P24063); assay: modulators of CD8 T cell-vesicle binding, dose response, powder samples, mouse 2C CD8+ cells (AID 504565); assay type: functional
T-cell = assay: inhibitors of CD8+ T cell–vesicle binding, dose response, mouse 2C CD8+ T cells, flow cytometry (AID 485284); assay type: functional

SMILES: CC(Oc1ccc(F)cc1)C(=O)Nc1sc2c(c1C(=O)NCc1cccnc1)CCCC2 (stereo unspecified)
- CC50 [1]: > 40 µM (active)
- EC50 (Troponin, cardiac muscle): > 71.5 µM (inactive)

SMILES: Cc1ccc(-c2ccc(/C=C3\C(=O)ON=C3c3ccccc3)o2)c([N+](=O)[O-])c1
- CC50 [2]: 9.29 µM (active)
- IC50 [3]: 10.5 µM (active)
- IC50 (Large T antigen): 29.5 µM (active)
- IC50 [4]: > 50 µM (inactive)
- EC50 [5]: 7.89 µM (active)
- Absolute IC50 (CHOP) [6]: 10 µM
- AC50 (INS1): 7.23 µM (active)
- IC50 (Genome polyprotein): 11.1 µM (active)
- AC50 [7]: 3.3 µM (active)
- AC50 [8]: 15 µM (active)
- CC50 [9]: 50 µM (active)
- IC50 [10]: 67.2 µM (active)

SMILES: O=C(NCc1ccccc1)c1cncc(Br)c1
- IC50 [11]: > 79.4 µM (inactive)
- IC50 [12]: > 79.4 µM (inactive)
- IC50 [13]: > 79.4 µM (inactive)

SMILES: COc1ccc(C[C@H](N)C(=O)N[C@H]2[C@@H](O)[C@H](n3cnc4c(N(C)C)ncnc43)O[C@@H]2CO)cc1
- CC50 [1]: 4.73 µM (active)
- IC50 [14]: > 80 µM (inactive)
- AC50 (Paired box protein Pax-8): 0.546 µM (active)

SMILES: O=C(CCS(=O)(=O)Cc1ccccc1)Nc1ncc([N+](=O)[O-])s1
- CC50 [15]: > 20 µM (active)

SMILES: Cc1cc(C)cc(Cn2ncc(Cl)c(Cl)c2=O)c1
- EC50 [16]: 8.8 µM (active)
- EC50 [17]: 6.91 µM (active)
- EC50 [18]: 21.7 µM (active)
- CC50 [19]: 22.5 µM (active)
- AC50 [20]: 2.12 µM (active)
- EC50 (Protein RecA): 0.985 µM (active)

SMILES: Cc1ccc(S(=O)(=O)NCc2ccc(C(=O)NCCN(Cc3ccccc3)CC(C)C)cc2)cc1
- IC50 [21]: > 20 µM (inactive)
- IC50 [22]: 4.33 µM (active)

SMILES: CCOC(=O)c1ccc(S(=O)(=O)N2CCN(C3CCCC3)CC2)cc1
- EC50 (Integrin alpha-L): 11 µM (active)
- EC50 (T-cell): 22.2 µM (active)
